In patent publication US4528375A, “Substituted 3,4-diamino-1,2,5-thiadiazoles having histamine H2 -receptor antagonist activity” (Bristol-Myers Company, priority 1984, dated 1985):

Experiments:
gastric acid secretion = experiment: Gastric Antisecretory Activity in the Gastric Fistula Rat; format: in vivo, Male Long Evans rats; settings: sc; for Potency Ratio (cimetidine = 1.0): gastric fistula rat, relative to cimetidine
peptic ulcer disease = settings: clinical evaluation, Gray et al., Lancet, 1, 8001 (1977); cited from earlier work

CN(C)Cc1ccc(CSCCNc2nsnc2N)o1 [Example 2, 3-Amino-4-{2-[(5-dimethylaminomethyl-2-furyl)methylthio]ethylamino}-1,2,5-thiadiazole]
Potency Ratio (cimetidine = 1.0) (gastric acid secretion): 4.5

Cc1cc(CSCCNc2nsnc2N)sc1CN(C)C [Example 3, 3-Amino-4-{2-[(5-dimethylaminomethyl-4-methyl-2-thienyl)methylthio]ethylamino}-1,2,5-thiadiazole]
Potency Ratio (cimetidine = 1.0) (gastric acid secretion): ~ 7

Nc1nsnc1NCCCOc1cccc(CN2CCCCC2)c1 [Example 1, 3-Amino-4-[3-(3-piperidinomethylphenoxy)propylamino]-1,2,5-thiadiazole]
Potency Ratio (cimetidine = 1.0) (gastric acid secretion): 37

CN/C(=N/CCSCc1nc[nH]c1C)NC#N [cimetidine, reference compound]
ED50 (gastric acid secretion; Rattus norvegicus, read-out: ED50 sc): 3.48 µmol/kg
effectiveness in the treatment of peptic ulcer disease (peptic ulcer disease): effective therapeutic agent in the treatment of peptic ulcer disease

Nc1nsnc1NCCCOc1cccc(CN2CCCC2)c1 [Example 4, 3-Amino-4-[3-(3-pyrrolidinomethylphenoxy)propylamino]-1,2,5-thiadiazole]
Potency Ratio (cimetidine = 1.0) (gastric acid secretion): 20
